The test deals with P335 leukemia ip, BDF1 mice, survival T/C %. The test is described as follows: NCI In Vivo Anticancer Drug Screen. Data for tumor model P335 Leukemia (intraperitoneal) in B6D2F1 (BDF1) mice. The following applies: endpoint: mean survival time, higher = longer survival. Here is the method: The antitumor activity of compounds was measured in mice bearing transplantable tumors. Survival or tumor size were measured and the results are expressed as the measurement made in the treated group (T) divided by the measurement made in the vehicle treated control group (C). The tumor model used in this assay is P335 Leukemia (intraperitoneal) in B6D2F1 (BDF1) mice

The mark [1] stands for this setting: dose: 0.5 mg/kg/injection, schedule: Q01DX Z (sc), vehicle: steriod suspending solution.
[2] abbreviates: dose: 1.0 mg/kg/injection, schedule: Q01DX Z (sc), vehicle: steriod suspending solution.
Setting [3] is: dose: 2.0 mg/kg/injection, schedule: Q01DX Z (sc), vehicle: steriod suspending solution.
Setting [4] is: dose: 4.0 mg/kg/injection, schedule: Q01DX Z (sc), vehicle: steriod suspending solution.
Setting [5] is: dose: 8.0 mg/kg/injection, schedule: Q01DX Z (sc), vehicle: steriod suspending solution.
Where [6] appears, read: dose: 16.0 mg/kg/injection, schedule: Q01DX Z (sc), vehicle: steriod suspending solution.
The mark [7] stands for this setting: dose: 31.0 mg/kg/injection, schedule: Q01DX Z (sc), vehicle: steriod suspending solution.
The mark [8] stands for this setting: dose: 62.5 mg/kg/injection, schedule: Q01DX Z (sc), vehicle: steriod suspending solution.
The mark [9] stands for this setting: dose: 125.0 mg/kg/injection, schedule: Q01DX Z (sc), vehicle: steriod suspending solution.
Setting [10] is: dose: 250.0 mg/kg/injection, schedule: Q01DX Z (sc), vehicle: steriod suspending solution.
The mark [11] stands for this setting: dose: 500.0 mg/kg/injection, schedule: Q01DX Z (sc), vehicle: steriod suspending solution.
[12] abbreviates: dose: 12.5 mg/kg/injection, schedule: Q01DX Z (ip), vehicle: carboxymethylcellulose (CMC).

Values joined by “and” are separate entries in the source; they are usually repeats but may differ in a detail not shown here. Identical values can stand only once. Inconclusive results and toxic doses are left out.

As for `C[C@]12CCC(=O)C=C1CC[C@@H]1[C@@H]2CC[C@@]2(C)[C@H]1CC[C@]2(C)O`, the T/C under setting [1] was 117 % of control; the T/C under setting [2] is 96 % of control; the T/C under setting [3] is 121 % of control; the T/C under setting [4] was 116 % of control; the T/C under setting [5] is 118 % of control; the T/C under setting [6] was 116 % of control. In addition, the T/C runs as follows: under setting [7], 116 % of control; under setting [8], 106 % of control and 111 % of control; under setting [9], 106 % of control; under setting [10], 109 % of control; under setting [11], 100 % of control.
For `O=C(Nc1ccc(C2=NCCN2)cc1)c1ccc(C(=O)Nc2ccc(C3=NCCN3)cc2)c(Cl)c1`, the T/C is, setting by setting: (dose: 3.75 mg/kg/injection, schedule: Q01DX Z (ip), vehicle: water) 92 % of control; (dose: 7.5 mg/kg/injection, schedule: Q01DX Z (ip), vehicle: water) 120 % of control; (dose: 15.0 mg/kg/injection, schedule: Q01DX Z (ip), vehicle: water) 157 % of control; (dose: 30.0 mg/kg/injection, schedule: Q01DX Z (ip), vehicle: water) 156 % of control and 206 % of control; (dose: 60.0 mg/kg/injection, schedule: Q01DX Z (ip), vehicle: water) 86 % of control.
As to `CC(CCC(C)OS(C)(=O)=O)OS(C)(=O)=O` (stereo not drawn), the T/C is 88 % of control (dose: 5.0 mg/kg/injection, schedule: Q01DX Z (ip), vehicle: carboxymethylcellulose (CMC)); 90 % of control (dose: 10.0 mg/kg/injection, schedule: Q01DX Z (ip), vehicle: carboxymethylcellulose (CMC)); 87 % of control (dose: 20.0 mg/kg/injection, schedule: Q01DX Z (ip), vehicle: carboxymethylcellulose (CMC)).
For the molecule `Cc1n[nH]c(=O)[nH]c1=O`, the T/C is, setting by setting: (dose: 50.0 mg/kg/injection, schedule: Q01DX Z (ip), vehicle: other) 97 % of control; (dose: 100.0 mg/kg/injection, schedule: Q01DX Z (ip), vehicle: other) 97 % of control; (dose: 200.0 mg/kg/injection, schedule: Q01DX Z (ip), vehicle: other) 102 % of control; (dose: 400.0 mg/kg/injection, schedule: Q01DX Z (ip), vehicle: other) 103 % of control.
In the case of `CS(=O)(=O)OCCCCOS(C)(=O)=O`, the T/C reads like this: (dose: 0.2 mg/kg/injection, schedule: Q01DX Z (ip), vehicle: methylcellulose (MC)) 87 % of control; (dose: 0.4 mg/kg/injection, schedule: Q01DX Z (ip), vehicle: methylcellulose (MC)) 100 % of control; (dose: 0.8 mg/kg/injection, schedule: Q01DX Z (ip), vehicle: methylcellulose (MC)) 98 % of control; (dose: 1.6 mg/kg/injection, schedule: Q01DX Z (ip), vehicle: methylcellulose (MC)) 89 % of control and 104 % of control; (dose: 6.4 mg/kg/injection, schedule: Q01DX Z (ip), vehicle: methylcellulose (MC)) 94 % of control; (dose: 12.8 mg/kg/injection, schedule: Q01DX Z (ip), vehicle: methylcellulose (MC)) 94 % of control. For the same molecule, the T/C (dose: 25.6 mg/kg/injection, schedule: Q01DX Z (ip), vehicle: methylcellulose (MC)) was 87 % of control.
Regarding `C[n+]1c2ccccc2nc2c(N)cc(N)cc21`, the T/C is 94 % of control (dose: 1.6 mg/kg/injection, schedule: Q01DX Z (ip), vehicle: carboxymethylcellulose (CMC)); 86 % of control (dose: 3.1 mg/kg/injection, schedule: Q01DX Z (ip), vehicle: carboxymethylcellulose (CMC)); 97 % of control (dose: 6.2 mg/kg/injection, schedule: Q01DX Z (ip), vehicle: carboxymethylcellulose (CMC)); 124 % of control (dose: 6.25 mg/kg/injection, schedule: Q01DX Z (ip), vehicle: carboxymethylcellulose (CMC)); 100 % of control and 114 % of control under setting [12]; 120 % of control (dose: 25.0 mg/kg/injection, schedule: Q01DX Z (ip), vehicle: carboxymethylcellulose (CMC)).
Consider `CCn1cnc2c(=S)nc[nH]c21`, for which the T/C (dose: 15.6 mg/kg/injection, schedule: Q01DX Z (ip), vehicle: carboxymethylcellulose (CMC)) was 96 % of control.
Take `O=CCC(O)C(O)C(O)CO` (stereo not drawn): the T/C runs as follows: (dose: 0.8 mg/kg/injection, schedule: Q01DX Z (ip), vehicle: carboxymethylcellulose (CMC)) 104 % of control; (dose: 16.0 mg/kg/injection, schedule: Q01DX Z (ip), vehicle: carboxymethylcellulose (CMC)) 100 % of control; (dose: 31.0 mg/kg/injection, schedule: Q01DX Z (ip), vehicle: carboxymethylcellulose (CMC)) 93 % of control; (dose: 62.5 mg/kg/injection, schedule: Q01DX Z (ip), vehicle: carboxymethylcellulose (CMC)) 114 % of control; (dose: 125.0 mg/kg/injection, schedule: Q01DX Z (ip), vehicle: carboxymethylcellulose (CMC)) 104 % of control.
Turning to `C[C@]12CCC(=O)C[C@H]1CC[C@@H]1[C@@H]2CC[C@@]2(C)[C@H]1CC[C@]2(C)O`, the T/C by setting is: under setting [6], 106 % of control; under setting [7], 93 % of control; under setting [8], 98 % of control and 111 % of control; under setting [9], 111 % of control; under setting [10], 109 % of control; under setting [11], 109 % of control. The T/C (dose: 1000.0 mg/kg/injection, schedule: Q01DX Z (sc), vehicle: steriod suspending solution) is 98 % of control.
Consider `C[C@]12C=CC(=O)C=C1CC[C@@H]1[C@@H]2[C@@H](O)C[C@@]2(C)[C@H]1CC[C@]2(O)C(=O)CO`, for which the T/C was 97 % of control under setting [3]; 103 % of control and 111 % of control under setting [4]; 101 % of control and 117 % of control under setting [5]; 95 % of control and 117 % of control under setting [6]; 95 % of control (dose: 32.0 mg/kg/injection, schedule: Q01DX Z (sc), vehicle: steriod suspending solution).
On to `CC[C@H](c1ccc(O)cc1)[C@@H](CC)c1ccc(O)cc1`, for which the T/C under setting [1] was 103 % of control; the T/C under setting [2] is 108 % of control; the T/C under setting [3] was 115 % of control and 116 % of control; the T/C under setting [4] is 114 % of control; the T/C under setting [5] is 122 % of control; the T/C under setting [6] was 111 % of control. For the same molecule, the T/C is, setting by setting: under setting [7], 105 % of control; under setting [8], 103 % of control and 111 % of control; under setting [9], 103 % of control; under setting [10], 106 % of control; under setting [11], 97 % of control.
Consider `N#CCSc1ncnc2nc[nH]c12`, for which the T/C by setting is: (dose: 50.0 mg/kg/injection, schedule: Q01DX Z (ip), vehicle: carboxymethylcellulose (CMC)) 93 % of control; (dose: 100.0 mg/kg/injection, schedule: Q01DX Z (ip), vehicle: carboxymethylcellulose (CMC)) 93 % of control; (dose: 200.0 mg/kg/injection, schedule: Q01DX Z (ip), vehicle: methylcellulose (MC)) 91 % of control.
For the molecule `NC(=O)c1cn(C2OC(CO)C(O)C2O)c2ncnc(N)c12` (stereo not drawn), the T/C reads like this: (dose: 0.25 mg/kg/injection, schedule: Q01DX Z (ip), vehicle: carboxymethylcellulose (CMC)) 101 % of control; (dose: 0.5 mg/kg/injection, schedule: Q01DX Z (ip), vehicle: carboxymethylcellulose (CMC)) 86 % of control; (dose: 16.0 micrograms/kg/injection, schedule: Q01DX Z (ip), vehicle: carboxymethylcellulose (CMC)) 110 % of control; (dose: 31.0 micrograms/kg/injection, schedule: Q01DX Z (ip), vehicle: carboxymethylcellulose (CMC)) 104 % of control; (dose: 63.0 micrograms/kg/injection, schedule: Q01DX Z (ip), vehicle: carboxymethylcellulose (CMC)) 105 % of control.
Turning to `CC(=O)Nc1ccc2nc3ccc(NC(C)=O)cc3[n+](-c3ccccc3)c2c1`, the T/C under setting [12] is 98 % of control.
As for `Clc1ccc(C(c2ccccc2Cl)C(Cl)Cl)cc1` (stereo not drawn), the T/C runs as follows: (dose: 12.5 mg/kg/injection, schedule: Q01DX Z (sc), vehicle: steriod suspending solution) 96 % of control; (dose: 25.0 mg/kg/injection, schedule: Q01DX Z (sc), vehicle: steriod suspending solution) 96 % of control; (dose: 50.0 mg/kg/injection, schedule: Q01DX Z (sc), vehicle: steriod suspending solution) 97 % of control; (dose: 100.0 mg/kg/injection, schedule: Q01DX Z (sc), vehicle: steriod suspending solution) 92 % of control.

For the origin of these results see PubChem BioAssay AID224 (DTP/NCI, 2004).
